The results in this text go back to US8778871B2 (Takeda Pharmaceutical Company Limited, priority 2004, dated 2014).

Non-standard residues stand in square brackets, D forms with d. Residues, ends and D or L forms follow the SMILES beside them. *: point of attachment. Propanoyl(3-indol-3-yl) = O=C(CCc1c[nH]c2ccccc12)*; Diphenylacetyl = O=C(C(c1ccccc1)c1ccccc1)*; Arg(Me) = CNC(=N)NCCC[C@H](N)C(=O)O; Orn = NCCC[C@H](N)C(=O)O; azaGly = NNC(=O)O

The target in assay [1] is T1, hOT7T175 (Homo sapiens, UniProt Q969F8).
T1 construct: expressed in transfected cells
T1 sequence (Q969F8 whole entry L364H): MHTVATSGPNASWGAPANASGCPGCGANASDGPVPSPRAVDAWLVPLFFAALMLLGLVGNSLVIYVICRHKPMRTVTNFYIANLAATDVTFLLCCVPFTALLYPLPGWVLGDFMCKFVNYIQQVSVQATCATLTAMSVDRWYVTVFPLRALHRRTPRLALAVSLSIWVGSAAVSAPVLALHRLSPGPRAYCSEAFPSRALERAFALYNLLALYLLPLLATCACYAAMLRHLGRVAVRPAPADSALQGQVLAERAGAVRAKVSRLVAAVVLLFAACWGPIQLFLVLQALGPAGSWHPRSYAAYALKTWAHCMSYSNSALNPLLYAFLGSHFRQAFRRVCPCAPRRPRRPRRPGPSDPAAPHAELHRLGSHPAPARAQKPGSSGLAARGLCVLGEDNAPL
As to the kind of experiment: Intracellular Ca ion level-increasing activity using FLIPR (180 seconds; specific activity to Metastin (1-54)). Type of assay: cell-based. To be noted: hOT7T175/CHO, change in intracellular calcium ion level for 180 seconds, Tables 21-23. In general terms: A change in cytosolic calcium serves as a functional read-out for many receptors and channels.

In assay [2] the target is T2, hOT7T175 (Homo sapiens, UniProt Q969F8, L364H).
T2 construct: expressed in transfected cells
T2 sequence (Q969F8 whole entry L364H): as above
Type of assay: cell-based. To be noted: hOT7T175/CHO, FLIPR, evaluation for 40 seconds after initiation of the reaction.
Procedure: The intracellular Ca ion level-increasing activity was measured using FLIPR as in TEST EXAMPLE 2.

Regarding “2-Aminoethyl-Gly-D-Tyr-Asn-Trp-Asn-Ser-Phe-Gly-Leu-Arg(Me)-Phe-NH2 [Compound No. 375]”, in assay [1], the “intracellular Ca ion level-increasing activity [specific activity to Metastin (1-54)]” value amounted to 2. In addition, the “Specific Act. (EC50/MS10 EC50)” value in assay [2] worked out at 5.2.
“Diphenylacetyl-AzaGly-Leu-Arg(Me)-Trp-NH2 [Compound No. 378]”: the “intracellular Ca ion level-increasing activity [specific activity to Metastin (1-54)]” value in assay [1] is “½”. Further, in assay [2], the “Specific Act. (EC50/MS10 EC50)” value was determined as 10.4.
The corresponding values for “D-Tyr-D-Pya(4)-Ser-Phe-AzaGly-Leu-Arg(Me)-Trp-NH2 [Compound No. 494]” are “⅓” and 8.6.
For “4-Aminomethylbenzoyl-Phe-AzaGly-Leu-Arg(Me)-Trp-NH2 [Compound No. 473]”, in that order: 3 and 4.2.
For “D-Tyr-D-Pya(4)-Asn-Ser-Phe-AzaGly-Leu-Har-Phe-NH2 [Compound No. 488]”, in that order: 1 and 5.5.
“Pyrrole-2-carbonyl-Phe-AzaGly-Leu-Arg(Me)-Trp-NH2 [Compound No. 455]”: in assay [1], the “intracellular Ca ion level-increasing activity [specific activity to Metastin (1-54)]” value was found to be 5. Besides, the “Specific Act. (EC50/MS10 EC50)” value in assay [2] came to 4.1.
Take `CC(C)C[C@H](NC(=O)CNC(=O)[C@H](Cc1ccccc1)NC(=O)[C@H](CO)NC(=O)[C@H](CC(N)=O)NC(=O)[C@H](Cc1c[nH]c2ccccc12)NC(=O)[C@H](CC(N)=O)NC(=O)[C@@H](N)Cc1ccc(O)cc1)C(=O)N[C@@H](CCCN)C(=O)N[C@@H](Cc1ccccc1)C(N)=O` [Compound No. 314] (H-YNWNSFGL[Orn]F-NH2): the “intracellular Ca ion level-increasing activity [specific activity to Metastin (1-54)]” value in assay [1] is 1. Besides, the “Specific Act. (EC50/MS10 EC50)” value in assay [2] amounted to 4.4.
“6-(Trifluoromethyl)nicotinoyl-Phe-AzaGly-Leu-Arg(Me)-Trp-NH2 [Compound No. 464]”: the “intracellular Ca ion level-increasing activity [specific activity to Metastin (1-54)]” value in assay [1] was 1. Besides, in assay [2], the “Specific Act. (EC50/MS10 EC50)” value came to 10.5.
For the compound “6-Methylnicotinoyl-Phe-AzaGly-Leu-Arg(Me)-Trp-NH2 [Compound No. 445]”, the “intracellular Ca ion level-increasing activity [specific activity to Metastin (1-54)]” value in assay [1] stood at 5. For the same compound, in assay [2], the “Specific Act. (EC50/MS10 EC50)” value is on record as 4.2.
On to “Pyrimidine-2-carbonyl-Phe-AzaGly-Leu-Arg(Me)-Trp-NH2 [Compound No. 479]”, for which the “intracellular Ca ion level-increasing activity [specific activity to Metastin (1-54)]” value in assay [1] amounted to 5. Besides, the “Specific Act. (EC50/MS10 EC50)” value in assay [2] is recorded as 2.6.
On to `CNC(=N)NCCC[C@H](NC(=O)[C@H](CC(C)C)NC(=O)NNC(=O)[C@H](Cc1ccccc1)NC(=O)[C@H](CO)NC(=O)[C@H](CC(N)=O)NC(=O)CCc1c[nH]c2ccccc12)C(=O)N[C@@H](Cc1ccccc1)C(N)=O` [Compound No. 260, 3-(3-Indolyl)propionyl-Asn-Ser-Phe-AzaGly-Leu-Arg(Me)-Phe-NH2] ({Propanoyl(3-indol-3-yl)}-NSF[azaGly]L[Arg(Me)]F-NH2), for which, in assay [1], the “intracellular Ca ion level-increasing activity [specific activity to Metastin (1-54)]” value amounted to 5. Besides, the “Specific Act. (EC50/MS10 EC50)” value in assay [2] is reported as 4.3.
For “2-(Indol-3-yl)ethylcarbamoyl-Phe-AzaGly-Leu-Arg(Me)-Trp-NH2 [Compound No. 369]”, in that order: 2 and 4.8.
Take `CNC(=N)NCCC[C@H](NC(=O)[C@H](CC(C)C)NC(=O)NNC(=O)[C@H](Cc1ccccc1)NC(=O)[C@H](CO)NC(=O)[C@H](CC(N)=O)NC(=O)C(c1ccccc1)c1ccccc1)C(=O)N[C@@H](Cc1ccccc1)C(N)=O` [Compound No. 268, Diphenylacetyl-Asn-Ser-Phe-AzaGly-Leu-Arg(Me)-Phe-NH2] (Diphenylacetyl-NSF[azaGly]L[Arg(Me)]F-NH2): the “intracellular Ca ion level-increasing activity [specific activity to Metastin (1-54)]” value in assay [1] is reported as 1. In addition, the “Specific Act. (EC50/MS10 EC50)” value in assay [2] is 4.5.
For “Cyclopropanecarbonyl-Phe-AzaGly-Leu-Arg(Me)-Trp-NH2 [Compound No. 447]”, in that order: 5 and 1.4.
